# According to US20200031778A1, “NOVEL 5-SUBSTITUTED IMIDAZOLYLMETHYL DERIVATIVES” (Bayer CropScience Aktiengesellschaft, priority 2016, published 2020):
# Assay: Log P by HPLC on reversed phase columns (EEC directive 79/831 Annex V.A8; methods [a], [b], [c])
# Format: physicochemical
# Settings: not given
# Summary of the method: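 Reversed-phase HPLC with LC-UV detection, 10→95% acetonitrile linear gradient; aqueous eluent 0.1% formic acid [a], 0.001 M ammonium acetate, neutral [b], or 0.1% phosphoric acid [c]. Calibrated against C3–C16 alkan-2-ones of known Log P by retention-time linear interpolation; multiple values within a method separated by "+".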
row,SMILES,LogP
1,OC(Cn1cncc1Br)c1ccc(Oc2ccc(Cl)nc2)nc1Cl (stereo not shown) [I-17],1.69^a
2,N#Cc1cncn1CC(O)(c1cc(F)cc(F)c1F)C1(F)CC1 (stereo not shown) [I-588],2.18^[a]
3,OC(Cn1cncc1Cl)c1ccc(Oc2ccc(I)cc2)cc1Cl (stereo not shown) [I-08],2.94^[a]
4,CC(O)(Cn1cncc1Cl)c1ccc(Oc2ccc(Br)nc2)cc1Cl (stereo not shown) [I-203],2.11^[a]
5,C=CCC(O)(Cn1cncc1C#N)C1(F)CC1 (stereo not shown) [I-664],1.56^[a]
6,N#Cc1cncn1CC(O)c1ccc(Oc2ccc(Br)cn2)cc1Cl (stereo not shown) [I-70],2.63^[a]
7,COc1cc(F)ccc1C(O)Cn1cncc1Cl (stereo not shown) [I-07],1.07^[a]
8,OC(Cn1cncc1Br)c1ccc(Oc2ccccc2)cc1Cl (stereo not shown) [I-27],2.21^[a]
9,NC(=S)c1cncn1CC(O)(c1ccc(Cl)cc1Br)C1(F)CC1 (stereo not shown) [I-505],1.92^[a]
10,CC(C)(C)CC(O)(Cn1cncc1C#N)c1ccccc1Cl (stereo not shown) [I-309],3.17^[a]
11,CC(O)(Cn1cncc1C#N)c1ccc(Oc2ccc(Cl)cc2)cc1Cl (stereo not shown) [I-182],3.51^[a]
12,N#Cc1cncn1CC(O)c1ccc(Oc2ccc(Cl)cn2)cc1Cl (stereo not shown) [I-69],2.54 ^[a]
13,N#Cc1cncn1CC(O)(c1ccccc1C(F)(F)F)C1CC1 (stereo not shown) [I-330],2.35^[a]
14,COc1nc(Cl)ccc1C(O)(Cn1cncc1C#N)C1(Cl)CC1 (stereo not shown) [I-561],2.51^[a]
15,CC(O)(Cn1cncc1C#N)c1cnc(Oc2ccc(Cl)cc2F)cc1C(F)(F)F (stereo not shown) [I-233],3.29^[a]
16,N#Cc1cncn1CC(O)(c1cc(F)c(F)c(Cl)c1)C1(F)CC1 (stereo not shown) [I-476],2.54^[a]

# Other lines, results leading:
row,LogP,SMILES
1,3.60^[a],N#Cc1cncn1CC(O)(c1ccc(C2CC2C2CC2)cc1Cl)C1(F)CC1 (stereo not shown) [I-388]
2,4.03^[a],C[Si](C)(C)C#Cc1ccc(C(O)(Cn2cncc2C#N)C2(Cl)CC2)c(F)c1 (stereo not shown) [I-650]
3,2.78^[a],N#Cc1cncn1CC(O)(CC1CC1)c1ccc(F)cc1Br (stereo not shown) [I-443]
4,2.25^[a],N#Cc1cncn1CC(O)(c1cc(Cl)ccc1F)C1(F)CC1 (stereo not shown) [I-522]
5,2.66^[a],N#Cc1cncn1CC(O)(c1cc(Br)c(F)cc1F)C1(Cl)CC1 (stereo not shown) [I-582]
6,2.75^[a],N#Cc1cncn1CC(O)(CC1CC1)c1ccc(Cl)cc1F (stereo not shown) [I-442]
7,2.34^[a],N#Cc1cncn1CC(O)(CC1CC1)c1c(F)cc(F)cc1F (stereo not shown) [I-511]
8,2.78^[a],N#Cc1cncn1CC(O)(c1ccc(F)cc1F)C1CCCC1 (stereo not shown) [I-478]
9,2.30^[a],N#Cc1cncn1CC(O)(c1cc(F)ccc1Cl)C1(Cl)CC1 (stereo not shown) [I-338]
10,2.68^[a],CC(C)C(O)(Cn1cncc1C#N)c1ccc(Cl)cc1F (stereo not shown) [I-417]
11,2.44^[a],N#Cc1cncn1CC(O)(c1cc(Cl)cc(F)c1F)C1(F)CC1 (stereo not shown) [I-570]
12,3.11^[a],CC(C)(C)CC(O)(Cn1cncc1C#N)c1ccc(Cl)cc1 (stereo not shown) [I-223]
13,2.25^[a],N#Cc1cncn1CC(O)(c1ccc(F)c(F)c1Cl)C1(F)CC1 (stereo not shown) [I-636]
14,2.70^[a],N#Cc1cncn1CC(O)(c1ccc(Br)cc1Cl)C1(Cl)CC1 (stereo not shown) [I-648]
15,2.95^[a],CCCCC(O)(Cn1cncc1C#N)c1ccc(F)cc1Cl (stereo not shown) [I-276]
16,3.55^[a],CC(C)(C)CC(O)(Cn1cncc1C#N)c1ccc(C(F)(F)F)cc1F (stereo not shown) [I-273]
17,3.78^[a],N#Cc1cncn1CC(O)(CC1CCCCC1)c1ccc(F)cc1Br (stereo not shown) [I-465]
18,2.45^[a],N#Cc1cncn1CC(O)(c1ccc(F)c(Cl)c1Cl)C1(F)CC1 (stereo not shown) [I-624]
19,2.68^[a],N#Cc1cncn1CC(O)(c1cc(Cl)c(Cl)cc1F)C1(F)CC1 (stereo not shown) [I-589]
20,2.39^[a],N#Cc1cncn1CC(O)(c1c(F)ccc(Cl)c1Cl)C1(F)CC1 (stereo not shown) [I-565]
21,3.05^[a],N#Cc1cncn1CC(O)(c1ccc(F)cc1F)C1CCCCC1 (stereo not shown) [I-481]
22,2.28^[a],N#Cc1cncn1CC(O)(c1c(F)ccc(Cl)c1F)C1(F)CC1 (stereo not shown) [I-587]

# Same assay, conditions: reversed phase HPLC column; method [a]: LC-UV, acidic range, 0.1% formic acid in water and acetonitrile as eluent (linear gradient from 10% to 95% acetonitrile)
row,chromatographic logP,SMILES
1,2.12,O=C(Cn1cncc1Cl)c1ccc(Oc2ccc(Cl)cn2)cc1 [IX-02]
2,3.21,CC(=O)c1cncn1CC(=O)c1cnc(Oc2ccc(Cl)cc2F)cc1C(F)(F)F [IX-102]
